Laboratory results from US8420853B2, “Derivatives of cyclic compound and the use thereof” (Wonkisopharm Co., Ltd, priority 2006, dated 2013).

System: mouse melanoma B-16 cells
Test: Inhibitory effect on melanin synthesis
Assay type: cell-based
Protocol: In order to confirm the inhibition effect of the compounds prepared in Examples 1 to 31 and hydroquinone on melanin biosynthesis, the experiment was performed with the procedure described in the literature (Lotan R., Lotan D. Cancer Res., 40, pp. 3345-3350, 1980).
[…] The medium was cultured for 3 days and the cultured cells were separated from the medium by treating with trypsin. The separated cells were centrifuged and the melanin was extracted therefrom. The extract was treated with 1 ml of sodium hydroxide solution (1N) and boiled for 10 mins to resolve the melanin. Optical density (OD) value was measured 3 times at 475 nm by a spectrophotometer and the amount of melanin was expressed by absorbance(OD)/1×10^6 cells. The inhibitory effect of melanin (%) was calculated from the melanin synthesis as compared with the control group.

[1] = Mus musculus, B16, 72 h, concentration 5 ug/ml, B-16 cells cultured 3 days, vs control group
[2] = Mus musculus, B16, 72 h, concentration 20 ug/ml, B-16 cells cultured 3 days, vs control group
[3] = concentration 5 ug/ml, B-16 cells cultured 3 days, vs control group
[4] = concentration 20 ug/ml, B-16 cells cultured 3 days, vs control group
[5] = mouse B-16 melanoma cells, statement in words

| Compound | inhibition at 5 µg/mL [1] [%] | inhibition at 20 µg/mL [2] [%] | further results |
| --- | --- | --- | --- |
| CCCCC(CC)C(=O)O[C@@H]1CCCC[C@H]1OC(=O)C(CC)CCCC (relative stereo) [Example 7, 2-ethyl-hexanoic acid 2-(2-ethyl-hexanoyloxy)-trans-cyclohexyl ester] | 42 | 69 | – |
| CCCCCCCCCC(=O)O[C@@H]1CCCC[C@H]1OC(=O)CCCCCCCCC (relative stereo) [Example 9, decanoic acid 2-decanoyloxy-trans-cyclohexyl ester] | 19 | 39 | – |
| CCCCCCOC1CCCCC1OCCCCCC (stereo not drawn) [Example 30, 1,2-bis-hexyloxy-cyclohexane] | 18 | 41 | – |
| butyric acid 3-methyl-2-butenoic acid 2,3-bis-(3-methyl-2-butenoyloxy)-phenyl ester [Example 23] | – | – | Melanin synthesis inhibition (%) [3]: 48%; Melanin synthesis inhibition (%) [4]: 75% |
| CC(C)=CC(=O)Oc1ccccc1OC(=O)C=C(C)C [Example 16, 3-methyl-2-butenoic acid 2-(3-methyl-2-butenoyloxy)-phenyl ester] | 15 | 27 | – |
| CC(C)=CC(=O)O[C@@H]1CCCC[C@H]1OC(=O)C=C(C)C (relative stereo) [Example 3, 3-methyl-2-butenoic acid 2-(3-methyl-2-butenoyloxy)-trans-cyclohexyl ester] | 39 | 72 | – |
| CC(C)=CC(=O)Oc1cc2ccccc2cc1OC(=O)C=C(C)C [Example 18, 3-methyl-2-butenoic acid 3-(3-methyl-2-butenoyloxy)-naphthalen-2-yl ester] | 47 | 67 | – |
| Oc1ccc(O)cc1 [Hydroquinone, reference compound] | – | – | inhibition at 1 µg/mL (Mus musculus, B16, 72 h, concentration 1 ug/ml, B-16 cells cultured 3 days, vs control group): 45%; Melanin synthesis inhibition (%) [3]: Cell death; cytotoxicity [5]: high levels of cytotoxicity; inhibitory activity of melanin synthesis [5]: potent inhibitory activity at low concentration |
| CCCCCCCC(=O)OC1CCCC(OC(=O)CCCCCCC)C1OC(=O)CCCCCCC (stereo not drawn) [Example 24, octanoic acid 2,3-bis-octanoyloxy-cyclohexyl ester] | 39 | 69 | – |
| CCCCCCCC(=O)O[C@@H]1CCCC[C@H]1OC(=O)CCCCCCC (relative stereo) [Example 6, octanoic acid 2-octanoyloxy-trans-cyclohexyl ester] | 30 | 51 | – |
| C=CCCC(=O)O[C@@H]1CCCC[C@H]1OC(=O)CCC=C (relative stereo) [Example 15, 4-pentenoic acid 2-(4-pentenoyloxy)-trans-cyclohexyl ester] | 39 | 72 | – |
| CCCC(=O)OC1C(OC(=O)CCC)C(OC(=O)CCC)C(OC(=O)CCC)C(OC(=O)CCC)C1OC(=O)CCC (stereo not drawn) [Example 25, myo-inositol hexa-O-butanoate] | – | – | Melanin synthesis inhibition (%) [3]: 27%; Melanin synthesis inhibition (%) [4]: 59% |
| CCCCC(CC)C(=O)O[C@@H]1CCC[C@H]1OC(=O)C(CC)CCCC (relative stereo) [Example 14, 2-ethyl-hexanoic acid 2-(2-ethyl-hexanoyloxy)-trans-cyclopentyl ester] | 31 | 57 | – |
| CC(C)=CC(=O)O[C@@H]1CCC[C@H]1OC(=O)C=C(C)C (relative stereo) [Example 12, 3-methyl-2-butenoic acid 2-(3-methyl-2-butenoyloxy)-trans-cyclopentyl ester] | 27 | 56 | – |
| CCCCC(CC)C(=O)Oc1cc2ccccc2cc1OC(=O)C(CC)CCCC (stereo not drawn) [Example 20, 2-ethyl-hexanoic acid 3-(2-ethyl-hexanoyloxy)-naphthalen-2-yl ester] | 29 | 55 | – |
| CCCCCCCC(=O)Oc1cc2ccccc2cc1OC(=O)CCCCCCC [Example 19, octanoic acid 3-octanoyloxy-naphthalen-2-yl ester] | 39 | 61 | – |

| Compound | inhibition at 5 µg/mL [1] [%] | inhibition at 20 µg/mL [2] [%] | further results |
| --- | --- | --- | --- |
| CC(C)CCOC1CCCCC1OCCC(C)C (stereo not drawn) [Example 28, 1,2-bis-(3-methyl-buthoxy)-cyclohexane] | – | – | Melanin synthesis inhibition (%) [3]: 25%; Melanin synthesis inhibition (%) [4]: 49% |
| CCCCC(=O)O[C@@H]1CCCC[C@H]1OC(=O)CCCC (relative stereo) [Example 2, pentanoic acid 2-pentanoyloxy-trans-cyclohexyl ester] | 45 | 78 | – |
| CCCCCCCC(=O)O[C@@H]1CCC[C@H]1OC(=O)CCCCCCC (relative stereo) [Example 13, octanoic acid 2-octanoyloxy-trans-cyclopentyl ester] | 30 | 54 | – |
| CCCCCCCC(=O)Oc1ccccc1OC(=O)CCCCCCC [Example 17, octanoic acid 2-octanoyloxy-phenyl ester] | 9 | 18 | – |
| CCCCCCCC(=O)Oc1cccnc1OC(=O)CCCCCCC [Example 21, octanoic acid 3-octanoyloxy-pyridin-2-yl ester] | 48 | 81 | – |
| CCCCCCCCC(=O)O[C@@H]1CCCC[C@H]1OC(=O)CCCCCCCC (relative stereo) [Example 8, nonanoic acid 2-nonanoyloxy-trans-cyclohexyl ester] | 21 | 47 | – |
| CCCCCC(=O)O[C@@H]1CCCC[C@H]1OC(=O)CCCCC (relative stereo) [Example 4, hexanoic acid 2-hexanoyloxy-trans-cyclohexyl ester] | 41 | 71 | – |
| CC(C)=CC(=O)OC1COCC1OC(=O)C=C(C)C (stereo not drawn) [Example 22, 3-methyl-2-butenoic acid 4-(3-methyl-2-butenoyloxy)-tetrahydrofuran-3-yl ester] | 27 | 49 | – |
| CCCCCCCCCCCC(=O)O[C@@H]1CCCC[C@H]1OC(=O)CCCCCCCCCCC (relative stereo) [Example 10, lauric acid 2-lauroyloxy-trans-cyclohexyl ester] | 9 | 15 | – |
| CCCCCCC(=O)O[C@@H]1CCCC[C@H]1OC(=O)CCCCCC (relative stereo) [Example 5, heptanoic acid 2-heptanoyloxy-trans-cyclohexyl ester] | 35 | 56 | – |
| CCCC(=O)O[C@@H]1CCCC[C@H]1OC(=O)CCC (relative stereo) [Example 1, butyric acid 2-butyryloxy-trans-cyclohexyl ester] | 30 | 55 | – |
| CCCCCCCCOC1CCCCC1OCCCCCCCC (stereo not drawn) [Example 31, 1,2-bis-octyloxy-cyclohexane] | 15 | 31 | – |
| CCCC(=O)OC[C@H]1O[C@H](OC)[C@H](OC(=O)CCC)[C@@H](OC(=O)CCC)[C@@H]1OC(=O)CCC [Example 27, methyl-alpha-D-glucose tetra-O-butanoate] | – | – | Melanin synthesis inhibition (%) [3]: 29%; Melanin synthesis inhibition (%) [4]: 49% |
| CC(C)=CC(=O)O[C@H]1CCCC[C@H]1OC(=O)C=C(C)C [Example 11, 3-methyl-2-butenoic acid 2-(3-methyl-2-butenoyloxy)-cis-cyclohexyl ester] | 31 | 54 | – |
| CC(C)=CC(=O)OC1OC[C@@H](OC(=O)C=C(C)C)[C@@H](OC(=O)C=C(C)C)[C@@H]1OC(=O)C=C(C)C (stereo partly drawn) [Example 26] | – | – | Melanin synthesis inhibition (%) [3]: 31%; Melanin synthesis inhibition (%) [4]: 61% |
| CCCCCOC1CCCCC1OCCCCC (stereo not drawn) [Example 29, 1,2-bis-pentyloxy-cyclohexane] | 22 | 43 | – |
